Values after ≈ are worked out from the molar mass of the structure shown.

The experiment concerns Mycobacterium tuberculosis. Briefly: Antitubercular activity against Mycobacterium tuberculosis H37Rv ATCC 27294 after 24 hrs by BACTEC radiometric susceptibility assay. The experiment is classed as functional. Conditions: H37Rv ATCC 27294, 24 h.
What is called MIC is the smallest concentration in the dilution series that meets the test's criterion for growth inhibition. As for `C=C1CC[C@H]2C(C)(C)CCC[C@]2(C)[C@H]1C/C=C(/C=O)CC=O`, the MIC was found to be 500 µg/mL (≈ 1650 µM). `C=C1CC[C@H]2C(C)(C)CCC[C@]2(C)[C@H]1C/C=C(/CO)CCO` yielded an MIC of 250 µg/mL (≈ 816 µM).

As to `C=C1CC[C@H]2C(C)(C)CCC[C@]2(C)[C@H]1C/C=C(\CCOC(C)=O)COC(C)=O`, the MIC was more than 1000 µg/mL. As to `C=C1CC[C@H]2C(C)(C)CCC[C@]2(C)[C@H]1C/C=C(/C=N/O)C/C=N/O`, the MIC stood at 500 µg/mL (≈ 1500 µM). With `CO[C@H]1/C=C/O[C@@]2(C)Oc3c(C)c(O)c4c(O)c(c(/C=N/N5CCN(C)CC5)c(O)c4c3C2=O)NC(=O)/C(C)=C\C=C\[C@H](C)[C@H](O)[C@@H](C)[C@@H](O)[C@@H](C)[C@H](OC(C)=O)[C@@H]1C` [RIFAMPIN] the figure was 2 µg/mL (≈ 2.43 µM); with `CN[C@@H]1[C@H](O[C@H]2[C@H](O[C@H]3[C@H](O)[C@@H](O)[C@H](N=C(N)N)[C@@H](O)[C@@H]3N=C(N)N)O[C@@H](C)[C@]2(O)C=O)O[C@@H](CO)[C@H](O)[C@H]1O` [STREPTOMYCIN], 2 µg/mL (≈ 3.44 µM).
